{"source": "patent US6037334A", "about": "“Phosphonates, process for preparing the same and medicaments” (Roche Diagnostics GmbH, priority 1996, dated 2000)", "key": {"citrate plasma": {"test_system": "citrate plasma", "assay": "Activated Partial Thromboplastin Time (APTT)", "assay_type": "biochemical, human", "settings": "difference to the control, 37° C.", "experimental": "(§1) 9 parts of fresh blood from healthy donors was mixed with one part of sodium citrate solution (0.11 mol/l) and it was centrifuged for 10 minutes at room temperature at ca. 3000 r.p.m. The plasma was removed by pipette and can be stored at room temperature for ca. 8 hours.\nActivated Partial Thromboplastin Time (APTT)\n100 μl citrate plasma and 100 μl APTT reagent (Stago Diagnostics/Boehringer Mannheim GmbH; contains cephalin lyophilisate with a microcrystalline kieselguhr activator) are incubated for 3 minutes at 37° C. together with 10 μl dimethylsulfoxide (DMSO) or 10 μl of a solution of the active substance in DMSO in a ball coagulometer (KC10 from the Amelung Company). On addition of 100 μl 0.025 M calcium chloride solution a stopwatch is started and the time at which coagulation starts is determined. The APTT is ca. 28-35 seconds in the control measurements and is extended by the active substances. If no coagulation occurred in the measurements after 5 minutes the experiment was stopped (>300).\nThe measured APTT times in seconds are given in table 1 as a difference to the control. The concentrations of the active substances in the final volume were 100 μM (APTT 100), 10 μM (APTT 10), 1 μM (APTT 1), 0.1 μM (APTT 0.1)."}, "horse thrombin": {"test_system": "horse thrombin", "assay": "Thrombin Time", "assay_type": "biochemical", "settings": "500 μM final; difference to the control; 37° C.; citrate plasma, ca. 3 U/ml horse thrombin", "experimental": "as §1\n200 μl citrate plasma is incubated for 2 minutes at 37° C. in a ball coagulometer (KC10 from the Amelung Company). 10 μl dimethylsulfoxide (DMSO) or a solution of the active substance in DMSO is added to 190 μl pre-heated thrombin reagent (Boehringer Mannheim GmbH; contains ca. 3 U/ml horse thrombin and 0.0125 M Ca^++). On addition of 200 μl of this solution to the plasma a stopwatch is started and the time at which coagulation starts is determined. The thrombin time is ca. 24 sec. in control measurements and is extended by the active substances. If no coagulation occurred in the measurements after 5 minutes the experiment was stopped (>300).\nThe measured thrombin times in seconds are given in table 1 as a difference to the control. The concentrations of the active substances in the final volume were 500 μM (TT 500)."}, "human factor Xa": {"target": "human factor Xa (Homo sapiens, UniProt P00742)", "sequence (P00742 235-488 limits assumed)": "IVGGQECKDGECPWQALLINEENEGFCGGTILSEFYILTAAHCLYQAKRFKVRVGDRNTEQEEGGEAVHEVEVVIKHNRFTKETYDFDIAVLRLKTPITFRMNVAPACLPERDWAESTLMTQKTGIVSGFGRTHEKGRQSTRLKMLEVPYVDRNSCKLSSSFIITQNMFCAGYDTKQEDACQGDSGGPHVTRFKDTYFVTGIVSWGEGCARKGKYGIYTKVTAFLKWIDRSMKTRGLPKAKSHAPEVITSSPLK", "sequence (P00742 41-179 partner limits assumed)": "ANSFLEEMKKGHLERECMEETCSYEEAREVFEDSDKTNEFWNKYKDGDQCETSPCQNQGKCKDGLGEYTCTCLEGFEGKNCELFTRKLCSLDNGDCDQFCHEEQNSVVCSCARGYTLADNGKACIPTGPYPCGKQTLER", "assay": "biochemical", "procedure": "The kinetic measurements were carried out at pH=7.5 and 25° C. in 0.1 M phosphate buffer that contained 0.2 M sodium chloride and 0.5% polyethylene glycol 6000 (see below for preparation) in polystyrene semi-microcuvettes in a total volume of 1 ml. The reactions were started by addition of enzyme to pre-incubated solutions that contained either dimethyldisulfoxide (control) or solutions of the test substance in DMSO (inhibitor stock solutions: 10 mM in DMSO). The increase in absorbance at 405 nm due to the release of p-nitroaniline from the substrate was monitored over a time period of 12 minutes.\nThe inhibition constants Ki were determined as follows. […] KM and Vmax were determined from a measurement series (constant inhibitor concentration, variable substrate concentrations) by a non-linear fit to the equation [formula]\nThe Ki value is obtained by non-linear regression from the entire series of measurements with 16 sets of data (measurements at 4 different substrate concentrations and each with 4 different inhibitor concentrations) from the equation [formula] in which VMax denotes the maximum rate in the absence of an inhibitor, KM denotes the Michaelis constant and [S] the substrate concentration. […]"}}, "note": "Structures can show the parent of a compound that is named as a salt.", "data": [{"molecule": "CCOP(=O)(OCC)C(Oc1ccc2ccc(C(=N)N)cc2c1)c1ccc(OC2CCN(C(C)=N)CC2)cc1", "note": "(stereo not drawn) [Example 1, (7-Carbamimidoyl-naphthalen-2-yloxy)-[{4-[1-(1-imino-ethyl)-piperidin-4-yloxy]-phenyl}-methyl)-phosphonic acid diethyl ester-dihydrochloride]", "values": [{"measurement": "APTT 0.1", "setting": "citrate plasma; 0.1 μM final", "value": 8, "unit": "s"}, {"measurement": "APTT 1", "setting": "citrate plasma; 1 μM final", "value": 45, "unit": "s"}, {"measurement": "APTT 10", "setting": "citrate plasma; 10 μM final, >300 = no coagulation after 5 minutes", "value": "> 300", "unit": "s"}, {"measurement": "APTT 100", "setting": "citrate plasma; 100 μM final, >300 = no coagulation after 5 minutes", "value": "> 300", "unit": "s"}, {"measurement": "TT 500", "setting": "horse thrombin", "value": 49, "unit": "s"}, {"measurement": "Ki", "setting": "human factor Xa", "value": 2, "unit": "nM"}]}]}
